Reference: US20110124888A1, “STYRYLBENZOFURAN DERIVATIVES AS INHIBITORS FOR BETA-AMYLOID FIBRIL FORMATION AND PREPARATION METHOD THEREOF” (Korea Institute of Science and Technology, priority 2008, published 2011)

Key:
[1] = system: congo red-positive beta-amyloid plagues; assay: Immunohistochemistry: congo red-positive beta-amyloid plaque count in hippocampus and cortex of transgenic mice; assay type: in vivo; conditions: vs Tg group
Protocol: The transgenic mice were screened and drug was administered thereto as described in 1) and 2) of Experimental Example 4. The brain was separated from the transgenic mouse and fixed in 10% neutral formalin solution. A region of the brain including the hippocampus and the cortex were subjected to removal, washing, dehydration and paraffin infiltration to obtain paraffin block including the brain tissue. The paraffin block was subjected to thin section in thickness of 8 μm to obtain the sections of all regions of hippocampus. Among them, 10 sections were elected at regular intervals. They were deparaffinized, hydrated, immersed in Mayer's hematoxylin for 1 min and rinsed with tap water. The rinsed tissue was reacted in an alkaline sodium chloride solution for 20 min, after then was reacted in an alkaline congo red solution for 20 min. The resulting tissue was washed with 100% ethyl alcohol, cleared with xylene and mounted using a synthetic mounting medium. In the hippocampus and cortex regions of the tissue preparations strained with congo red, congo red-positive beta-amyloid plagues were counted.

beta-amyloid 42 = beta-amyloid 42 (Homo sapiens, UniProt P05067); assay: Biochemical test: content of beta-amyloid 42 in hippocampus tissue of transgenic mice; assay type: in vivo; conditions: hippocampus tissue, based on the content of beta amyloid 42 in the Tg group
Chain of beta-amyloid 42 (P05067 672-713 limits assumed): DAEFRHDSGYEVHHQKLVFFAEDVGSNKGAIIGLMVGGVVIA

[2] = system: transgenic double tg mice (APPswe, PSEN1 dE9); assay: In vivo fear conditioning test in transgenic mice; conditions: 5 to 12 months of age, based on the freezing (%) of Tg vehicle group
Protocol: The tails of 3-week old mice born from Male B6C3-Tg (APPswe, PSEN1 dE9, Jackson Laboratory Co., Maine, A) and female B6C3F1 (central Lab. Animal Inc., Korea) were cut in lengths of about 0.5 cm (tail biopsy). The genomic DNAs were extracted from the tail samples and subjected to a genotype analysis to screen transgenic double tg mice.
From 5 months to 12 months after the birth, the mice were administered orally with the compound of Example 9, in an amount of 30 mg/kg or 100 mg/kg every day. As a comparative compound, tramiprosate (Aisen, P. S. et. al., Curr. Alzheimer Res. 2007, 4, 473) was used, which binds to beta-amyloid protein to inhibit the deposition and cytotoxicity to the protein. The compounds were administrated.
3) Fear Conditioning Test
At the First day of training, the mice were placed in a conditioning box and adjusted for 2 min. The fear conditioning was performed with a conditional stimulus (CS) of 75 dB for 20 sec, together with an electrical stimulus (unconditional stimulus (US)) of 0.5 mA for final 2 sec in the conditional stimulus period. After 1 min, the animals were transferred to a cage. After 24 hrs, the retention test was performed. The animals were placed in the same conditioning box as used above and observed for 5 min. The freezing response was measured without CS and US. The freezing response is defined in the state of the animals keeping still except for breathing.

beta-amyloid 42 (Aβ42) = target: T1, beta-amyloid 42 (Aβ42) (Homo sapiens, UniProt P05067); assay: Inhibitory effect on the formation of beta-amyloid fibrils in vitro (ThT fluorescence assay); assay type: biochemical; conditions: for IC50: In vitro ThT analysis (Aβ42: 25 μM), experiment of Table 1; for % inhibition against the beta-amyloid 42 formation compared with curcumin: Tables 1 to 6, relative to curcumin
T1 construct: Beta-amyloid 42 (Aβ42) was dissolved in dimethylsulfoxide (DMSO)
T1 sequence (P05067 672-713 limits assumed): as above
Protocol: In order to investigate the inhibitory effect on the formation of beta-amyloid fibrils, the inventive compounds were examined as follows:
Beta-amyloid 42 (Aβ42) was dissolved in dimethylsulfoxide (DMSO) to form a […] Aβ42 stock solution. In addition, ThT (thioflavin T) was dissolved in distilled water to a concentration of 1 mM and subsequently diluted with 50 mM glycin buffer (pH 8.5) to yield a 5 μM ThT stock solution.
45 μL of PBS (phosphate buffer saline, pH 7.4) was added to each of a 96 well fluorescence microplate (white, F-bottom). 5 μL of the 250 μM Aβ42 stock solution was added to each well. The final concentration of each compound obtained in Examples was in a range of 10 to 0.001 μM by adding 2 μL of a solution, which is prepared by dissolving the subject compounds obtained in Examples in DMSO, to each well. At this time, the final concentration of Aβ42 in each well was 25 μM. The plate was then incubated at room temperature for 1 hr, and 150 μL of the 5 μM ThT stock solution was added to each well.
The fluorescence intensity of each well was determined with the multi label fluorescence counter (LS-55 Luminescence spectrometer, Perkin Elmer) at an excitation wavelength of 450 nm (excitation slit width: 10 nm) and an emission wavelength of 482 nm (emission slit width: 10 nm), while adjusting counting time to 1 second. The control group was prepared by adding PBS solution, Aβ42 and DMSO, without adding the inventive compound. % Inhibition on the formation of beta-amyloid fibrils was calculated in accordance with the following equation and IC5O was calculated by using GraphPad Prism version 4.03 Program.
% Inhibition=[1−(C−D)/(A−B)]×100 Equation 1%
A (control group): fluorescence intensity in a group treated with PBS solution, Aβ42, and DMSO
B (blank): fluorescence intensity in a group treated with PBS solution and DMSO
C (experimental group): fluorescence intensity in a group treated with PBS solution, Aβ42, DMSO, and the inventive compound
D (compensation value to the experimental group): fluorescence intensity in a group treated with PBS solution, DMSO, and the inventive compound

Structure (SMILES)	Reduction rate (%) of beta-amyloid plaques, cortex ([1]; 30 mg/kg)	Reduction rate (%) of beta-amyloid plaques, hippocampus ([1]; 30 mg/kg)	Total reduction rate (%) of beta-amyloid plaques ([1]; 30 mg/kg)	Reduction rate (%) of beta-amyloid plaques, cortex ([1]; 100 mg/kg)	Reduction rate (%) of beta-amyloid plaques, hippocampus ([1]; 100 mg/kg)	Total reduction rate (%) of beta-amyloid plaques ([1]; 100 mg/kg)	Reduction rate (%) of beta amyloid 42 content (beta-amyloid 42; 30 mg/kg)	Reduction rate (%) of beta amyloid 42 content (beta-amyloid 42; 100 mg/kg)	Increase rate (fold) of freezing ([2]; 30 mg/kg orally every day)	Increase rate (fold) of freezing ([2]; 100 mg/kg orally every day)	melting point	IC50 (beta-amyloid 42 (Aβ42))	% inhibition against the beta-amyloid 42 formation compared with curcumin (beta-amyloid 42 (Aβ42))
NCCCS(=O)(=O)O [Tramiprosate, tramiprosate, reference compound]	32%	7%	29%	12%	7%	11%	8%	16%	2.3 fold	1.8 fold	–	–	–
Cc1ccc2oc(C=Cc3ccc(N(C)C)cc3)cc2c1 [Compound 4, 5-methyl-2-(4-dimethylaminostyryl)benzofuran]	–	–	–	–	–	–	–	–	–	–	188 to 189 °C	128 nM	superior % inhibition
CN(C)c1ccc(C=Cc2cc3cc(O)ccc3o2)cc1 [Compound 3, 5-Hydroxy-2-(4-dimethylaminostyryl)benzofuran]	–	–	–	–	–	–	–	–	–	–	177 to 178 °C	163 nM	superior % inhibition
COc1ccc2oc(C=Cc3ccc(N(C)C)c(OC)c3)cc2c1 [Compound 22, 5-methoxy-2-(3-methoxy-4-dimethylaminostyryl)benzofuran]	–	–	–	–	–	–	–	–	–	–	226.5 to 227.5 °C	156 nM	superior % inhibition
